Laboratory results published in patent US12617804B2, “Conjugation-fused bipolar redox-active molecule, preparation method, and application thereof” (Hangzhou Normal University, priority 2021, dated 2026).

Tests used:
[1] = Miscibility of QPT-TEG with polar organic solvents; assay type: physicochemical; details: acetonitrile, dimethyl sulfoxide, dichloromethane and other solvents, in any ratio
Description: The bipolar redox-active molecule with the above structure (QPT-TEG) is a […] fluid that is miscible with most polar organic solvents. QPT-TEG is able to increase the overall solubility of the molecule by introducing long ether chains without changing the redox potential of the designed redox subject molecule.

[2] = Cyclic voltammetry (CV), TBA-TFSI supporting electrolyte in acetonitrile; assay type: physicochemical
Experimental: Redox kinetics of QPT-OMe obtained in Embodiment 1 is tested by cyclic voltammetry (CV). Tetrabutylammonium bis(trifluoromethylsulfonyl)imide (TBA-TF SI) is used as a supporting electrolyte and acetonitrile as a solvent. The results are shown in FIG. 3, where two pairs of symmetrical cathodic and anodic peaks can be clearly observed. The half-wave potentials of −2.04 and 0.72 V (with respect to Ag^+/Ag) correspond to the reduction and oxidation reactions of QPT-OMe, respectively. The open-circuit voltage is about 2.76 V when using QPT-OMe as the active material in the RFB, which is one of the highest value for bipolar molecules so far.
Furthermore, the QPT-OMe/QPT-OMe and QPT-P-OMe/QPT-OMe redox pairs show high rate constants of 1.4×10^−2 and 1.6×10-2 cm s^−1, respectively, by calculation. This is probably due to the relatively low recombination energy required for single electron transfer to occur from a large off-domain π-conjugated system. The high rate constants also imply negligible voltage loss when electrochemical reactions occur at the electrode surface.
The redox kinetics of QPT-TEG obtained in Embodiment 4 is tested by cyclic voltammetry (CV). Tetrabutylammonium bis(trifluoromethylsulfonyl)imide (TBA-TF SI) is used as a supporting electrolyte and acetonitrile as a solvent.

[3] = with respect to Ag+/Ag, TBA-TFSI, acetonitrile

Row | miscibility with solvents [1] | redox behavior in CV ([2]; compared with QPT-OMe, FIG. 5) | electrochemical window [2] | open-circuit voltage as active material in the RFB ([2]; from the two half-wave potentials) | half-wave potential, oxidation reaction [2, 3] | half-wave potential, reduction reaction [2, 3] | SMILES | rate constant, QPT-OMe/QPT-OMe redox pair ([2]; first-named redox pair, by calculation)
1 | miscible | basically the same as that of QPT-OMe | – | – | – | – | COCCOCCOCCOc1ccc2c(c1)c(=O)c1cccc3c1n2-c1ccccc1S3 [QPT-TEG] | –
2 | – | – | ~3 V | about 2.76 V | 0.72 V | −2.04 V | COc1ccc2c(c1)c(=O)c1cccc3c1n2-c1ccccc1S3 [QPT-OMe] | 0.014 cm/s
